Consider 66 molecules from ChEMBL document CHEMBL1821716, “Pyrazolopyridine inhibitors of B-RafV600E. Part 2: structure-activity relationships” (Bioorg Med Chem Lett, 2011).

The structures appear in SMILES notation. Where only a bound is given, the exact number is not on record here.

For test [1], the target named is Serine/threonine-protein kinase B-raf (Homo sapiens, UniProt P15056, V600E). As to the kind of experiment: Inhibition of full length B-Raf V600E mutant.
The nature of test [2]: Inhibition of basal ERK phosphorylation in human MALME-3M cells. It is filed as cell-based.

Serine/threonine-protein kinase B-raf, sequence (P15056 2-766 V600E limits assumed): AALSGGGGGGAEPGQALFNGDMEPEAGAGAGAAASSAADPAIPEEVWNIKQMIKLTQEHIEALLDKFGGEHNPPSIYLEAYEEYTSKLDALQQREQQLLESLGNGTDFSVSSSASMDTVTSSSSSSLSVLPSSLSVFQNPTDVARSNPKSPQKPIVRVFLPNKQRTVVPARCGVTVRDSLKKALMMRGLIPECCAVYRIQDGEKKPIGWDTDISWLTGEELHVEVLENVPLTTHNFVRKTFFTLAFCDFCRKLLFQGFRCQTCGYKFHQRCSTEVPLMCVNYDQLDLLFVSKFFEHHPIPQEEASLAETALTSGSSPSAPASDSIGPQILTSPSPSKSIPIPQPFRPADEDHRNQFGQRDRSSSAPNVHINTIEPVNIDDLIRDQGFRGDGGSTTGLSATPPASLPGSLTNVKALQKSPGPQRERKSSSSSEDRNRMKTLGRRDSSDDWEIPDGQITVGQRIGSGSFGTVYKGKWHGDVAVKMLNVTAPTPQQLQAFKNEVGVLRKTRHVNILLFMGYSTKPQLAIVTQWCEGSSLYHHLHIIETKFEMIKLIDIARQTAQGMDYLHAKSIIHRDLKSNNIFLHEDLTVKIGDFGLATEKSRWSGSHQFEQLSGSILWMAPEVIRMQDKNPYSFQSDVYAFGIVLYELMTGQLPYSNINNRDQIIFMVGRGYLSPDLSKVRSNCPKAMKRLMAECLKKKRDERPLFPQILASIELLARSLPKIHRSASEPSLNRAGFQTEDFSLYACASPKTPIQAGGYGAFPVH

`CN(C)S(=O)(=O)Nc1ccc(F)c(C(=O)Nc2cnc3[nH]ccc3c2)c1F`: the IC50 (commonly the midpoint of a concentration-inhibition curve) in test [1] came out at 200 nM; in test [2], 260 nM. For `CCCS(=O)(=O)Nc1cccc(C(=O)Nc2cnc3[nH]nc(OC)c3c2)c1F` the same measures were 13 nM and 38 nM. In the case of `COc1n[nH]c2ncc(NC(=O)c3c(F)ccc(NS(=O)(=O)c4cn(C)cn4)c3F)cc12`, the half-inhibitory concentration (IC50) in test [2] is above 10000 nM. With `CCCS(=O)(=O)Nc1ccc(F)c(C(=O)Nc2cnc3[nH]nc(CC)c3c2)c1F`, the IC50 in test [1] is 9.2 nM; in test [2] it was 84 nM. For the molecule `O=C(Nc1cnc2[nH]ccc2c1)c1c(F)ccc(NS(=O)(=O)CCC(F)(F)F)c1F`, the IC50 in test [1] is 33 nM; in test [2], 270 nM.

Turning to `CCCS(=O)(=O)Nc1ccc(F)c(C(=O)Nc2cnc3[nH]cc(C(F)(F)F)c3c2)c1F`, the IC50 worked out at 6.2 nM in test [1] and 230 nM in test [2]. Regarding `COc1n[nH]c2ncc(NC(=O)c3c(F)ccc(NS(=O)(=O)c4ccccn4)c3F)cc12`, the IC50 in test [1] is 16 nM; in test [2], 280 nM. In the case of `CCCS(=O)(=O)Nc1ccc(Cl)c(C(=O)Nc2cnc3[nH]ccc3c2)c1`, the IC50 amounted to 88 nM in test [1] and 2100 nM in test [2]. For the molecule `COc1n[nH]c2ncc(NC(=O)c3c(F)ccc(NS(=O)(=O)c4cccnc4)c3F)cc12`, the IC50 in test [1] came out at 0.5 nM; in test [2], 83 nM. With `CCCS(=O)(=O)Nc1ccc(F)c(C(=O)Nc2cnc3[nH]nc(OC)c3c2)c1OC`, the 50% inhibitory concentration (IC50) in test [1] turned out to be 110 nM; in test [2] it was 180 nM. The like results for `COc1n[nH]c2ncc(NC(=O)c3c(F)ccc(NS(=O)(=O)c4cccs4)c3F)cc12` were, in that order, 0.2 nM and 30 nM. The like results for `COc1n[nH]c2ncc(NC(=O)c3c(F)ccc(NS(=O)(=O)c4ccco4)c3F)cc12` were, in that order, 0.7 nM and 66 nM. For `CCN(C)S(=O)(=O)Nc1ccc(F)c(C(=O)Nc2cnc3[nH]nc(OC)c3c2)c1F` the same measures were 29 nM and 28 nM. As for `CCCS(=O)(=O)Nc1ccc(F)c(C(=O)Nc2cnc3[nH]nc(I)c3c2)c1F`, the concentration for half-maximal inhibition (IC50) is 1.8 nM in test [1] and 36 nM in test [2]. The like results for `COc1n[nH]c2ncc(NC(=O)c3c(F)ccc(NS(=O)(=O)c4ccccc4F)c3F)cc12` were, in that order, 1.8 nM and 9.1 nM.

With `COc1n[nH]c2ncc(NC(=O)c3c(F)ccc(NS(=O)(=O)NC(C)C)c3F)cc12`, the IC50 in test [1] was 110 nM; in test [2], 630 nM.

For the molecule `O=C(Nc1cnc2[nH]ccc2c1)c1c(F)ccc(NS(=O)(=O)CCCF)c1F`, the 50% inhibitory concentration (IC50) in test [1] was found to be 19 nM; in test [2] it was 75 nM.

For the molecule `CCCS(=O)(=O)Nc1cccc(C(=O)Nc2cnc3[nH]ccc3c2)c1F`, the figures for the IC50 in test [1] and in test [2] were 87 nM and 290 nM, respectively. For `CCCS(=O)(=O)Nc1ccc(F)c(C(=O)Nc2cnc3[nH]nc(OCC4COC4)c3c2)c1F` the same measures were 4.2 nM and 43 nM. The like results for `CCCS(=O)(=O)Nc1cc(F)c(F)c(C(=O)Nc2cnc3[nH]nc(OC)c3c2)c1F` were, in that order, 2.3 nM and 100 nM. Take `COc1n[nH]c2ncc(NC(=O)c3c(F)ccc(NS(=O)(=O)c4ccc(F)cc4)c3F)cc12`: the figures for the IC50 in test [1] and in test [2] were 46 nM and 340 nM, respectively. For the molecule `CCCS(=O)(=O)Nc1ccc(OC)c(C(=O)Nc2cnc3[nH]nc(OC)c3c2)c1F`, in test [1], half-maximal inhibition (IC50) was put at 2600 nM. The same measure, in the same setting: as for `CCCS(=O)(=O)Nc1ccc(F)c(C(=O)Nc2cnc3[nH]nc(OC)c3c2)c1C(F)(F)F`, the figure is 530 nM. Turning to `CC(C)CS(=O)(=O)Nc1ccc(F)c(C(=O)Nc2cnc3[nH]ccc3c2)c1F`, the IC50 in test [1] is 140 nM; in test [2], 200 nM. The like results for `COc1n[nH]c2ncc(NC(=O)c3c(F)ccc(NS(=O)(=O)c4cc(F)ccc4F)c3F)cc12` were, in that order, 1 nM and 20 nM. For `COc1n[nH]c2ncc(NC(=O)c3c(F)ccc(NS(=O)(=O)CCCF)c3F)cc12` the same measures were 1.3 nM and 13 nM. `CCCS(=O)(=O)Nc1ccc(F)c(C(=O)Nc2cnc3[nH]cc(Br)c3c2)c1F` returned a concentration for half-maximal inhibition (IC50) in test [2] of 39 nM. In test [2], `CCCS(=O)(=O)Nc1ccc(F)c(C(=O)Nc2cnc3[nH]nc(C)c3c2)c1F` gave an IC50 of 86 nM. As for `CCCS(=O)(=O)Nc1cc(F)c(F)c(C(=O)Nc2cnc3[nH]ccc3c2)c1F`, the figures for the IC50 in test [1] and in test [2] were 19 nM and 410 nM, respectively.

Take `COc1n[nH]c2ncc(NC(=O)c3c(F)ccc(NS(=O)(=O)CC(C)C)c3F)cc12`: the 50% inhibitory concentration (IC50) amounted to 4.5 nM in test [1] and 11 nM in test [2]. For `CCCS(=O)(=O)Nc1ccc(Cl)c(C(=O)Nc2cnc3[nH]nc(OC)c3c2)c1Cl` the same measures were 1.4 nM and 40 nM. For `CCCS(=O)(=O)Nc1cc(F)cc(C(=O)Nc2cnc3[nH]ccc3c2)c1F` the same measures were 76 nM and 400 nM.

For the molecule `CCCCS(=O)(=O)Nc1ccc(F)c(C(=O)Nc2cnc3[nH]ccc3c2)c1F`, the IC50 in test [1] is 40 nM; in test [2] it was 120 nM.

With `CCN(C)S(=O)(=O)Nc1ccc(F)c(C(=O)Nc2cnc3[nH]ccc3c2)c1F`, the 50% inhibitory concentration (IC50) is 400 nM in test [1] and 340 nM in test [2]. On to `O=C(Nc1cnc2[nH]ccc2c1)c1c(F)ccc(NS(=O)(=O)CC2CC2)c1F`, for which the IC50 in test [1] worked out at 29 nM; in test [2], 230 nM.

Consider `COc1n[nH]c2ncc(NC(=O)c3c(F)ccc(NS(=O)(=O)NCC(F)F)c3F)cc12`, for which the results for the IC50 in test [1] and in test [2] were 13 nM and 500 nM, respectively. In the case of `CCCS(=O)(=O)Nc1ccc(Cl)c(C(=O)Nc2cnc3[nH]ccc3c2)c1Cl`, the 50% inhibitory concentration (IC50) in test [1] was 8.3 nM; in test [2] it was 206 nM.

Turning to `O=C(Nc1cnc2[nH]ccc2c1)c1c(F)ccc(NS(=O)(=O)C2CC2)c1F`, the IC50 in test [1] was 99 nM; in test [2] it was 710 nM. For the molecule `CCCS(=O)(=O)Nc1ccc(F)c(C(=O)Nc2cnc3[nH]ncc3c2)c1F`, in test [2], 62 nM corresponded to half-maximal inhibition (IC50). In the case of `CCCS(=O)(=O)Nc1ccc(F)c(C(=O)Nc2cnc3[nH]nc(C(F)(F)F)c3c2)c1F`, the IC50 in test [1] amounted to 5.8 nM; in test [2], 280 nM. For `CCCS(=O)(=O)Nc1ccc(F)c(C(=O)Nc2cnc3[nH]nc(OCC)c3c2)c1F` the same measures were 2.4 nM and 12 nM.

Consider `CCCS(=O)(=O)Nc1cc(F)cc(C(=O)Nc2cnc3[nH]nc(OC)c3c2)c1F`, for which the IC50 in test [1] worked out at 7.5 nM; in test [2] it was 80 nM.

In test [2], `CCCS(=O)(=O)Nc1ccc(F)c(C(=O)Nc2cnc3[nH]nc(Br)c3c2)c1F` had a half-maximal inhibitory concentration (IC50) of 44 nM. Take `CCS(=O)(=O)Nc1ccc(F)c(C(=O)Nc2cnc3[nH]nc(OC)c3c2)c1F`: the 50% inhibitory concentration (IC50) in test [1] is 25 nM; in test [2], 62 nM. For `CCCS(=O)(=O)Nc1ccc(C)c(C(=O)Nc2cnc3[nH]ccc3c2)c1F` the same measures were 170 nM and 1400 nM. For the molecule `CCCS(=O)(=O)Nc1ccc(F)c(C(=O)Nc2cnc3[nH]ccc3c2)c1F`, in test [2], the midpoint of inhibition, the IC50, lay at 94 nM.

As to `COc1n[nH]c2ncc(NC(=O)c3c(F)ccc(NS(=O)(=O)Cc4ccccc4)c3F)cc12`, the values for the IC50 in test [1] and in test [2] were 190 nM and 830 nM, respectively. Consider `O=C(Nc1cnc2[nH]ccc2c1)c1c(F)ccc(NS(=O)(=O)CC(F)(F)F)c1F`, for which the results for the 50% inhibitory concentration (IC50) in test [1] and in test [2] were 38 nM and 2600 nM, respectively. For `CCCS(=O)(=O)Nc1ccc(Cl)c(C(=O)Nc2cnc3[nH]nc(OC)c3c2)c1` the same measures were 61 nM and 250 nM. The like results for `CCCS(=O)(=O)Nc1ccc(F)c(C(=O)Nc2cnc3[nH]cc(C)c3c2)c1F` were, in that order, 16 nM and 62 nM. For `CCCS(=O)(=O)Nc1ccc(F)c(C(=O)Nc2cnc3[nH]cc(CC)c3c2)c1F` the same measures were 19 nM and 290 nM. `CCCS(=O)(=O)Nc1ccc(Cl)c(C(=O)Nc2cnc3[nH]ccc3c2)c1F`: the 50% inhibitory concentration (IC50) amounted to 17 nM in test [1] and 190 nM in test [2]. For `CCNS(=O)(=O)Nc1ccc(F)c(C(=O)Nc2cnc3[nH]nc(OC)c3c2)c1F` the same measures were 18 nM and 180 nM. For `O=C(Nc1cnc2[nH]ccc2c1)c1c(F)ccc(NS(=O)(=O)N2CCCC2)c1F` the same measures were 120 nM and 170 nM. In test [1], `CCCS(=O)(=O)Nc1ccc(F)c(C(=O)Nc2cnc3[nH]ccc3c2)c1C` gave an IC50 of 680 nM. As for `CCCS(=O)(=O)Nc1ccc(F)c(C(=O)Nc2cnc3[nH]cc(I)c3c2)c1F`, the values for the IC50 in test [1] and in test [2] were 2.2 nM and 60 nM, respectively. As to `CCCS(=O)(=O)Nc1ccc(F)c(C(=O)Nc2cnc3[nH]nc(OC)c3c2)c1`, the IC50 in test [1] was 150 nM; in test [2] it was 350 nM.

Regarding `COc1n[nH]c2ncc(NC(=O)c3c(F)ccc(NS(=O)(=O)C4CC4)c3F)cc12`, the IC50 in test [1] is 63 nM; in test [2], 170 nM. On to `CCCS(=O)(=O)Nc1ccc(F)c(C(=O)Nc2cnc3[nH]ccc3c2)c1`, for which inhibition in test [1] was half-maximal at 210 nM (IC50).

`COc1n[nH]c2ncc(NC(=O)c3c(F)ccc(NS(=O)(=O)c4ccccc4)c3F)cc12`: in test [2], the 50% inhibitory concentration (IC50) turned out to be 17 nM. `COc1n[nH]c2ncc(NC(=O)c3c(F)ccc(NS(=O)(=O)CC4CC4)c3F)cc12`: the values for the IC50 in test [1] and in test [2] were 17 nM and 31 nM, respectively. The like results for `COc1n[nH]c2ncc(NC(=O)c3c(F)ccc(NS(=O)(=O)N(C)C)c3F)cc12` were, in that order, 18 nM and 63 nM. On to `CCCS(=O)(=O)Nc1ccc(F)c(C(=O)Nc2cnc3[nH]nc(OCC4CCC4)c3c2)c1F`, for which the figures for the IC50 in test [1] and in test [2] were 3.5 nM and 76 nM, respectively.

`CCCS(=O)(=O)Nc1ccc(Cl)c(C(=O)Nc2cnc3[nH]nc(OC)c3c2)c1F` displayed a concentration for half-maximal inhibition (IC50) in test [2] of 20 nM. As for `CCCS(=O)(=O)Nc1ccc(F)c(C(=O)Nc2cnc3[nH]nc(O[C@@H]4CCOC4)c3c2)c1F`, the half-maximal inhibitory concentration (IC50) in test [1] is 6.9 nM; in test [2], 62 nM. For `CCCS(=O)(=O)Nc1ccc(F)c(C(=O)Nc2cnc3[nH]nc(OCC(F)(F)F)c3c2)c1F` the same measures were 5.3 nM and 28 nM.
